Assay results as given in patent publication US11214803B2, “Modulators of YAP1 expression” (Ionis Pharmaceuticals, Inc., priority 2019, dated 2022).
Strand notation (5' to 3'): a small letter for the sugar, then the base; units joined by * are phosphorothioate-linked, units joined directly phosphodiester-linked; [ ] holds rarer units or linkages, { } end groups; capitals alone tell only the bases. k = constrained ethyl (cEt); [5mC] = 5-methylcytosine; d = 2'-deoxy (DNA)

Tested on: Yap1 mRNA
Assay: Dose-dependent inhibition of human Yap1 in A-431 cells (Example 8, 10,000 cells per well, RTS4814)
Type: cell-based
Details: free uptake, approximately 48 hours, RTS4814; for Yap1 mRNA, % UTC: A-431 cells, 10,000 cells per well; for IC50: A-431 cells, linear regression on log/linear plot
Experimental: Modified oligonucleotides described in the studies above were tested at various doses in A-431 cells. Cultured A-431 cells at a density of 10,000 cells per well were treated using free uptake with modified oligonucleotides diluted to concentrations described in the tables below. After approximately 48 hours, Yap1 mRNA levels were measured as previously described using the Human Yap1 primer-probe set RTS4814. Yap1 mRNA levels were normalized to total RNA content, as measured by RIBOGREEN®. Results are presented in the tables below as percent control of the amount of Yap1 mRNA relative to untreated control cells (% UTC). IC50s were calculated using a linear regression on a log/linear plot of the data in excel.

Substance	Yap1 mRNA, % UTC (31.3 nM)	Yap1 mRNA, % UTC (125.0 nM)	Yap1 mRNA, % UTC (500.0 nM)	Yap1 mRNA, % UTC (2000.00 nM)	IC50
1075401 (antisense k[5mC]*kG*kA*dT*dT*dA*dA*dA*dA*d[5mC]*dA*d[5mC]*dT*kG*kG*kT) [compound 1075401]	62 % UTC	26 % UTC	11 % UTC	7 % UTC	0.04 µM
1075458 (antisense k[5mC]*k[5mC]*kA*d[5mC]*dA*dA*dT*dA*dT*dA*d[5mC]*dT*d[5mC]*k[5mC]*kA*kA) [compound 1075458]	74 % UTC	43 % UTC	17 % UTC	6 % UTC	0.1 µM
1076260 (k[5mC]*kT*kT*dA*dA*dT*dT*dT*dA*dA*d[5mC]*dT*d[5mC]*k[5mC]*kT*kG; antisense) [compound 1076260]	61 % UTC	30 % UTC	12 % UTC	5 % UTC	0.05 µM
1075498 (k[5mC]*kA*kT*dT*dA*dT*dA*dT*dA*dA*dT*dG*d[5mC]*kA*kG*kG; antisense) [compound 1075498]	82 % UTC	40 % UTC	21 % UTC	16 % UTC	0.1 µM
1075810 (kG*kT*kA*dG*d[5mC]*dA*dA*dT*dA*dG*dA*dG*dT*kA*kA*k[5mC]; antisense) [compound 1075810]	67 % UTC	28 % UTC	12 % UTC	7 % UTC	0.1 µM
1076070 (kA*kT*kT*dA*dG*dT*dA*dA*dT*dG*d[5mC]*dA*d[5mC]*kA*kG*kG; antisense) [compound 1076070]	55 % UTC	17 % UTC	8 % UTC	6 % UTC	< 0.02 µM
1076291 (kG*kA*kT*dT*dA*dA*dT*dG*dG*dT*dG*dG*d[5mC]*kA*kT*kT; antisense) [compound 1076291]	75 % UTC	26 % UTC	8 % UTC	5 % UTC	0.1 µM
1075143 (k[5mC]*k[5mC]*kT*dT*dA*dT*dT*dA*dG*dT*d[5mC]*dA*dG*kT*kT*k[5mC]; antisense) [compound 1075143]	59 % UTC	21 % UTC	5 % UTC	3 % UTC	< 0.02 µM
1074850 (kT*kT*kG*dT*dT*dA*dT*dG*dA*dT*dA*dG*dG*k[5mC]*kA*k[5mC]; antisense) [compound 1074850]	63 % UTC	20 % UTC	7 % UTC	5 % UTC	0.04 µM
1074792 (kA*kT*k[5mC]*dA*dA*dT*dG*dT*dG*d[5mC]*dT*d[5mC]*d[5mC]*kA*kT*k[5mC]; antisense) [compound 1074792]	48 % UTC	17 % UTC	7 % UTC	5 % UTC	< 0.02 µM
1076003 (kA*kA*kT*dT*dT*dA*dA*dT*dG*dG*d[5mC]*dT*dT*kG*k[5mC]*kA; antisense) [compound 1076003]	60 % UTC	28 % UTC	17 % UTC	11 % UTC	0.04 µM
1075785 (k[5mC]*kA*kT*dT*dT*dT*dA*dT*dA*dG*dG*dG*d[5mC]*k[5mC]*kA*kT; antisense) [compound 1075785]	29 % UTC	7 % UTC	3 % UTC	3 % UTC	< 0.02 µM
1076552 (kA*kT*kG*dT*dA*dT*dA*dA*dA*dT*dA*d[5mC]*d[5mC]*kA*kG*kG; antisense) [compound 1076552]	73 % UTC	40 % UTC	17 % UTC	12 % UTC	0.1 µM
1075748 (kG*kT*kA*dA*dA*dT*d[5mC]*dA*dA*dG*dT*dT*dG*k[5mC]*kA*kT; antisense) [compound 1075748]	81 % UTC	36 % UTC	12 % UTC	7 % UTC	0.1 µM
1074560 (DNA k[5mC]*k[5mC]*kA*dA*dT*d[5mC]*dG*dA*dG*dA*d[5mC]*dT*dT*kA*kA*kA) [compound 1074560]	50 % UTC	16 % UTC	6 % UTC	4 % UTC	< 0.02 µM
1076448 (k[5mC]*kT*kT*dA*dT*dA*dA*dT*dG*d[5mC]*dA*dA*dT*k[5mC]*k[5mC]*kT; antisense) [compound 1076448]	61 % UTC	19 % UTC	4 % UTC	3 % UTC	< 0.02 µM
1075047 (antisense kT*kA*kA*dA*dA*dT*dT*dA*dG*dA*d[5mC]*dT*d[5mC]*k[5mC]*k[5mC]*k[5mC]) [compound 1075047]	80 % UTC	63 % UTC	27 % UTC	10 % UTC	0.2 µM
1074315 (antisense kG*kA*kT*dT*dG*dA*dT*dA*dT*dT*d[5mC]*d[5mC]*dG*k[5mC]*kA*kT) [compound 1074315]	57 % UTC	26 % UTC	9 % UTC	5 % UTC	0.03 µM
1074628 (DNA kG*k[5mC]*k[5mC]*dT*dG*dT*dT*dA*dT*dG*dA*dA*d[5mC]*k[5mC]*k[5mC]*kT) [compound 1074628]	29 % UTC	13 % UTC	7 % UTC	6 % UTC	< 0.02 µM
1074250 (antisense k[5mC]*kT*kG*dA*dT*d[5mC]*dG*dA*dT*dG*dT*dG*dA*kT*kT*kT) [compound 1074250]	67 % UTC	35 % UTC	15 % UTC	9 % UTC	0.1 µM
1076490 (k[5mC]*k[5mC]*kA*dA*dA*dA*dT*dA*dG*dG*dT*dG*dA*kG*kT*k[5mC]; antisense) [compound 1076490]	36 % UTC	9 % UTC	4 % UTC	3 % UTC	< 0.02 µM
1074566 (DNA CACTGAATTCCAATCG; 3-10-3 cEt gapmer, chemistry not fully specified) [compound 1074566]	41 % UTC	12 % UTC	5 % UTC	3 % UTC	< 0.02 µM
1074411 (kT*kG*kT*dG*dA*dA*dA*dG*dA*dG*dG*dT*d[5mC]*kA*kG*k[5mC]; antisense) [compound 1074411]	47 % UTC	20 % UTC	8 % UTC	6 % UTC	< 0.02 µM
1074565 (DNA kA*k[5mC]*kT*dG*dA*dA*dT*dT*d[5mC]*d[5mC]*dA*dA*dT*k[5mC]*kG*kA; antisense) [compound 1074565]	47 % UTC	20 % UTC	9 % UTC	6 % UTC	< 0.02 µM
1075048 (antisense kG*kT*kA*dA*dA*dA*dT*dT*dA*dG*dA*d[5mC]*dT*k[5mC]*k[5mC]*k[5mC]) [compound 1075048]	76 % UTC	42 % UTC	13 % UTC	5 % UTC	0.1 µM
1074594 (DNA kT*kA*kG*dG*dA*dG*d[5mC]*dA*dA*dG*dT*d[5mC]*dT*kT*kG*kT) [compound 1074594]	53 % UTC	23 % UTC	10 % UTC	5 % UTC	< 0.02 µM
1076323 (k[5mC]*kA*kA*dT*dT*dT*dA*d[5mC]*dA*dA*dG*dT*dG*kA*kG*k[5mC]; antisense) [compound 1076323]	41 % UTC	35 % UTC	13 % UTC	5 % UTC	< 0.02 µM
1074313 (antisense kT*kG*kA*dT*dA*dT*dT*d[5mC]*d[5mC]*dG*d[5mC]*dA*dT*kT*kG*k[5mC]) [compound 1074313]	56 % UTC	21 % UTC	9 % UTC	5 % UTC	< 0.02 µM
1075078 (antisense k[5mC]*kA*kA*d[5mC]*dT*dA*dT*dA*d[5mC]*dG*dG*dT*d[5mC]*k[5mC]*kA*kT) [compound 1075078]	65 % UTC	32 % UTC	12 % UTC	4 % UTC	0.1 µM
